pEC50: −log10 of the molar value.
Tested on: HBV rcDNA
Assay: HepDE19 assay with bDNA quantitation of HBV rcDNA
Format: cell-based, hepatitis B virus
Conditions: HepDE19 cells, Tet-free medium, 7 day-incubation, rcDNA measured by Quantigene 2.0 bDNA assay, top concentration 25 μM; read-out: DE-19 bDNA EC50
Procedure: HepDE19 Assay with bDNA Quantitation of HBV rcDNA:
HepDE19 cell culture system is a HepG2 (human hepatocarcinoma) derived cell line that supports HBV DNA replication and cccDNA formation in a tetracycline (Tet)-regulated manner and produces HBV rcDNA and a detectable reporter molecule dependent on the production and maintenance of cccDNA (Guo, et al., 2007, J. Virol. 81:12472-12484).
HepDE19 (50,000 cells/well) were plated in 96-well collagen-coated tissue-culture treated microtiter plates in DMEM/F12 medium supplemented with 10% fetal bovine serum, 1% penicillin-streptomycin and 1 μg/mL tetracycline and incubated in a humidified incubator at 37° C. and 5% CO2 overnight. Next day, the cells were switched to fresh medium without tetracycline and incubated for 4 hours at 37° C. and 5% CO2. The cells were treated with fresh Tet-free medium with compounds at concentrations starting at 25 μM and a serial, ½ log, 8-point, titration series in duplicate. The final DMSO concentration in the assay was 0.5%. The plates were incubated for 7 days in a humidified incubator at 37° C. and 5% CO2. Following a 7 day-incubation, the level of rcDNA present in the inhibitor-treated wells was measured using a Quantigene 2.0 bDNA assay kit (Affymetrix, Santa Clara, Calif.) with HBV specific custom probe set and manufacturers instructions. Concurrently, the effect of compounds on cell viability was assessed using replicate plates, plated at a density of 5,000 cells/well and incubated for 4 days, to determine the ATP content as a measure of cell viability using the cell-titer glo reagent (CTG; Promega Corporation, Madison, Wis.) as per manufacturer's instructions. The plates were read using a Victor luminescence plate reader (PerkinElmer Model 1420 Multilabel counter) and the relative luminescence units (RLU) data generated from each well was calculated as % inhibition of the untreated control wells and analyzed using XL-Fit module in Microsoft Excel to determine EC50 and EC90 (bDNA) and CC50 (CTG) values using a 4-parameter curve fitting algorithm.
Representative compounds of the invention were tested for their abilities to inhibit formation of relaxed circular DNA (rcDNA) in a HepDE19 assay, as described elsewhere herein.

Structure (SMILES) | pEC50
Cn1cc2c(c1C(=O)Nc1ccc(F)c(Cl)c1)CCC2NC(=O)C1CC1 (single isomer, unassigned) [Compound 24, N-(3-Chloro-4-fluorophenyl)-4-(cyclopropanecarboxamido)-2-methyl-2,4,5,6-tetrahydrocyclopenta [c]pyrrole-1-carboxamide] | 5.80
Cn1c(Cl)c2c(c1C(=O)Nc1ccc(F)c(Cl)c1)CCCC2NC(=O)OCc1nc[nH]n1 (single isomer, unassigned) [Compound 135, (1H-1,2,4-Triazol-3-yl)methyl (3-chloro-1-((3-chloro-4-fluorophenyl)carbamoyl)-2-methyl-4,5,6,7-tetrahydro-2H-isoindol-4-yl)carbamate] | 6.74
Cn1cc2c(c1C(=O)Nc1ccc(F)c(Cl)c1)CCC2NC(=O)OCC1(C(N)=O)CC(F)(F)C1 (single isomer, unassigned) [Compound 55, (1-Carbamoyl-3,3-difluorocyclobutyl)methyl(1-((3-chloro-4-fluorophenyl)carbamoyl)-2-methyl-2,4,5,6-tetrahydrocyclopenta[c]pyrrol-4-yl)carbamate] | 5.36
Cn1cc2c(c1C(=O)Nc1ccc(F)c(Cl)c1)CCC2NC(=O)OCc1cnco1 (single isomer, unassigned) [Compound 36, Oxazol-5-ylmethyl (1-((3-chloro-4-fluorophenyl)carbamoyl)-2-methyl-2,4,5,6-tetrahydrocyclopenta[c]pyrrol-4-yl)carbamate] | 7.70
Cn1cc2c(c1C(=O)Nc1ccc(F)c(Cl)c1)CCC2NC(=O)OCCC#N (single isomer, unassigned) [Compound 50, 2-Cyanoethyl (1-((3-chloro-4-fluorophenyl)carbamoyl)-2-methyl-2,4,5,6-tetrahydrocyclopenta[c]pyrrol-4-yl)carbamate] | 5.52
Cn1c(Cl)c2c(c1C(=O)Nc1ccc(F)c(Cl)c1)CCCC2NC(=O)OCc1cn[nH]n1 (single isomer, unassigned) [Compound 136, (2H-1,2,3-Triazol-4-yl)methyl (3-chloro-1-((3-chloro-4-fluorophenyl)carbamoyl)-2-methyl-4,5,6,7-tetrahydro-2H-isoindol-4-yl)carbamate] | 5.92
Cn1cnc(COC(=O)NC2CCn3c(C(=O)Nc4ccc(F)c(Cl)c4)ccc32)n1 (single isomer, unassigned) [Compound 40, (1-Methyl-1H-1,2,4-triazol-3-yl)methyl (5-((3-chloro-4-fluorophenyl)carbamoyl)-2,3-dihydro-1H-pyrrolizin-1-yl)carbamate] | 5.18
Cn1cc2c(c1C(=O)Nc1ccc(F)c(Cl)c1)CCC2NC(=O)OCc1nc[nH]n1 (single isomer, unassigned) [Compound 57, (1H-1,2,4-Triazol-3-yl)methyl (1-((3-chloro-4-fluorophenyl)carbamoyl)-2-methyl-2,4,5,6-tetrahydrocyclopenta[c]pyrrol-4-yl)carbamate] | 7.30
Cn1cc2c(c1C(=O)Nc1ccc(F)c(Cl)c1)CCC2NC(=O)OCc1ncco1 (single isomer, unassigned) [Compound 34, Oxazol-2-ylmethyl (1-((3-chloro-4-fluorophenyl)carbamoyl)-2-methyl-2,4,5,6-tetrahydrocyclopenta[c]pyrrol-4-yl)carbamate] | 7.10
Cn1cc2c(c1C(=O)Nc1ccc(F)c(Cl)c1)CCC2NC(=O)OCc1cnco1 (single isomer, unassigned) [Compound 37, Oxazol-5-ylmethyl (1-((3-chloro-4-fluorophenyl)carbamoyl)-2-methyl-2,4,5,6-tetrahydrocyclopenta[c]pyrrol-4-yl)carbamate] | 5.59

Same assay, conditions: Hepatitis B virus, HepDE19, 168 h, HepDE19 cells, Tet-free medium, 7 day-incubation, rcDNA measured by Quantigene 2.0 bDNA assay, top concentration 25 μM; read-out: DE-19 bDNA EC50

Structure (SMILES) | pEC50
Cn1cnc(COC(=O)NC2CCc3c2cn(C)c3C(=O)Nc2cccc(F)c2)n1 (single isomer, unassigned) [Compound 66, (1-methyl-1H-1,2,4-triazol-3-yl)methyl (1-((3-fluorophenyl)carbamoyl)-2-methyl-2,4,5,6-tetrahydrocyclopenta[c]pyrrol-4-yl)carbamate] | 6.05
Cn1c(Cl)c2c(c1C(=O)Nc1ccc(F)c(Cl)c1)CCC2NC(=O)OCc1nc[nH]n1 (stereo not drawn) [Compound 103, (1H-1,2,4-Triazol-3-yl)methyl (3-chloro-1-((3-chloro-4-fluorophenyl)carbamoyl)-2-methyl-2,4,5,6-tetrahydrocyclopenta[c]pyrrol-4-yl)carbamate] | 7.70
Cc1cc(NC(=O)c2c3c(cn2C)C(NC(=O)OCc2ncn(C)n2)CC3)ccc1F (single isomer, unassigned) [Compound 62, (1-methyl-1H-1,2,4-triazol-3-yl)methyl (1-((4-fluoro-3-methylphenyl)carbamoyl)-2-methyl-2,4,5,6-tetrahydrocyclopenta[c]pyrrol-4-yl)carbamate] | 7.05
CNC(=O)NC1CCc2c1c[nH]c2C(=O)Nc1ccc(F)c(Cl)c1 (racemic) [Compound 8, N-(3-chloro-4-fluorophenyl)-4-(3-methylureido)-2,4,5,6-tetrahydrocyclopenta[c]pyrrole-1-carboxamide] | 4.74
Cn1cc2c(c1C(=O)Nc1ccc(F)c(Cl)c1)CCCCC2N (stereo not drawn) [Compound 80, 4-Amino-N-(3-chloro-4-fluorophenyl)-2-methyl-2,4,5,6,7,8-hexahydro cyclohepta[c]pyrrole-1-carboxamide] | 5.73
Cn1c(C(=O)Nc2ccc(F)c(Cl)c2)c2c(c1C1CC1)C(NC(=O)OCc1nc[nH]n1)CC2 (stereo not drawn) [Compound 95, (1H-1,2,4-triazol-3-yl)methyl (1-((3-chloro-4-fluorophenyl)carbamoy1)-3-cyclopropy1-2-methyl-2,4,5,6-tetrahydrocyclopenta[c]pyrrol-4-yl)carbamate] | 4.82
Cn1cc2c(c1C(=O)Nc1ccc(F)c(Cl)c1)CCC2N (stereo not drawn) [Compound 100, 4-Amino-N-(3-chloro-4-fluorophenyl)-2-methyl-2,4,5,6-tetrahydrocyclopenta[c]pyrrole-1-carboxamide] | 5.42

Same assay, conditions: Hepatitis B virus, HepDE19, 168 h, read-out: DE-19 bDNA EC50 (μM), HepDE19 cells, Tet-free medium, 7 day-incubation, rcDNA measured by Quantigene 2.0 bDNA assay, top concentration 25 μM

Structure (SMILES) | EC50 [µM]
Cn1c(Br)c2c(c1C(=O)Nc1ccc(F)c(Cl)c1)CCC2NC(=O)OCc1nc[nH]n1 (single isomer, unassigned) [Compound 125, (1H-1,2,4-Triazol-3-yl)methyl(3-bromo-1-((3-chloro-4-fluorophenyl)carbamoyl)-2-methyl-2,4,5,6-tetrahydrocyclopenta[c]pyrrol-4-yl)carbamate] | 0.04
CNC(=O)NC1CCc2c1cn(C)c2C(=O)Nc1ccc(F)c(Cl)c1 (racemic) [Compound 3, N-(3-chloro-4-fluorophenyl)-2-methyl-4-(3-methylureido)-2,4,5,6-tetrahydrocyclopenta[c]pyrrole-1-carboxamide] | 0.94

Same assay, conditions: read-out: DE-19 bDNA EC50; HepDE19 cells, Tet-free medium, 7 day-incubation, rcDNA measured by Quantigene 2.0 bDNA assay, top concentration 25 μM

Structure (SMILES) | pEC50
CCC#CCOC(=O)NC1CCc2c1cn(C)c2C(=O)Nc1ccc(F)c(Cl)c1 (single isomer, unassigned) [Compound 112, Pent-2-yn-1-yl(1-((3-chloro-4-fluorophenyl)carbamoyl)-2-methyl-2,4,5,6-tetrahydrocyclopenta[c]pyrrol-4-yl)carbamate] | 5.24
COC(=O)NC1CCCc2c1cn(C)c2C(=O)Nc1ccc(F)c(Cl)c1 (single isomer, unassigned) [Compound 29, Methyl (1-((3-chloro-4-fluorophenyl)carbamoyl)-2-methyl-4,5,6,7-tetrahydro-2H-isoindol-4-yl)carbamate] | 6.33
Cn1cc2c(c1C(=O)Nc1ccc(F)c(Cl)c1)CCC2NC(=O)OCc1nn[nH]n1 (single isomer, unassigned) [Compound 149, (2H-Tetrazol-5-yl)methyl(1-((3-chloro-4-fluorophenyl)carbamoyl)-2-methyl-2,4,5,6-tetrahydrocyclopenta[c]pyrrol-4-yl)carbamate] | 5.96
Cn1ccc(COC(=O)NC2CCc3c2cn(C)c3C(=O)Nc2ccc(F)c(Cl)c2)n1 (single isomer, unassigned) [Compound 22, (1-Methyl-1H-pyrazol-3-yl)methyl(1-((3-chloro-4-fluorophenyl)carbamoyl)-2-methyl-2,4,5,6-tetrahydrocyclopenta[c]pyrrol-4-yl)carbamate] | 6.11
Cn1cc2c(c1C(=O)Nc1ccc(F)c(Cl)c1)CCC2NC(=O)OCc1nn[nH]n1 (single isomer, unassigned) [Compound 150, (2H-Tetrazol-5-yl)methyl(1-((3-chloro-4-fluorophenyl)carbamoyl)-2-methyl-2,4,5,6-tetrahydrocyclopenta[c]pyrrol-4-yl)carbamate] | 5.17
